Assay results as given in US20040102501A1, “Stable, low free formaldehyde, synergistic antimicrobial compositions of aldehyde donors and dehydroacetic acid” (priority 2002, published 2004).

What was measured:
[1] = system: Mixed bacteria: equal mixture of Staphylococcus aureus (ATCC No. 6538), Pseudomonas aeruginosa (ATCC No. 9027), and Escherichia coli (ATCC No. 8739); assay: Preservative challenge test against mixed bacteria in anionic protein shampoo; format: cell-based
Description: Mixed bacteria challenge tests were performed by adding approximately 1-5×10^6 organisms per gram of formulation, the organisms comprising an equally divided mixture of Staphylococcus aureus (ATCC No. 6538), Pseudomonas aeruginosa (ATCC No. 9027), and Escherichia coli (ATCC No. 8739) incubated at 36° C. on nutrient agar […] 24 hours prior to testing. The test samples were incubated at 23° C. (room temperature) for the number of days indicated, after which an aliquot of the sample was taken and diluted stepwise to a 10^6 fold reduction in concentration. The diluted samples were plated out on tryptic soy agar and incubated for 48 hours at 36° C. After incubation, readings of the total number of colony forming units per gram (cfu/g) were made on the samples. Table 3 illustrates the levels at which the individual components Glydant®2000 and DHA are effective and ineffective against bacteria.

[2] = system: Mixed bacteria: equal mixture of Staphylococcus aureus (ATCC No. 6538), Pseudomonas aeruginosa (ATCC No. 9027), and Escherichia coli (ATCC No. 8739); assay: Synergy at Day 14 (Kull method, QA/Qa+QB/Qb) from mixed bacteria challenge test; format: cell-based; details: DHA alone
Description: A synergistic effect is a response to a combination of two or more components that produce an effect greater than the sum of their individual effects. […] E. Kull et al., “Mixtures of Quaternary Ammonium Compounds and Long-chain Fatty Acids as Antifungal Agents”, Applied Microbiology, 9:538-541 (1961). The synergism value is determined by the formula: […]
where QA is the quantity of Compound A in mixture, producing an endpoint; Qa is the quantity of Compound a acting alone, producing an endpoint; QB is the concentration of Compound B in the mixture, producing an endpoint. Qb is the concentration of Compound b acting alone, producing an endpoint.
When the value of (QA/Qa+QB/Qb) is less than one, the mixture is synergistic. Values for (QA/Qa+QB/Qb) of 1 and greater than 1, represent an additive effect and an antagonistic effect, respectively. According to this method of measuring synergism, the quantity of each component in the various mixtures is compared with the quantity of pure component that is required to reach the same endpoint or to produce the same microbiological effect as the mixture. […]

[3] = 0.150% preservative as supplied

CC(=O)C1C(=O)C=C(C)OC1=O (stereo not shown) [DHA, dehydroacetic acid]
Day 0 cfu/g. [1, 3]: 3.0 × 10^6 cfu/g | Day 7 cfu/g. [1, 3]: 8.0 × 10^3 cfu/g | Day 14 cfu/g. [1, 3]: 1.0 × 10^6 cfu/g | Day 0 cfu/g. ([1]; 0.20% preservative as supplied): 3.0 × 10^6 cfu/g | Day 7 cfu/g. ([1]; 0.20% preservative as supplied): 1.0 × 10^3 cfu/g | Day 14 cfu/g. ([1]; 0.20% preservative as supplied): <10 cfu/g | Qb (concentration of Compound b acting alone, producing an endpoint) [2]: 0.2%
